How the values were obtained:
[1] = test system: antibodies in sera from SARS patients (sera 1a, 1b, 2, 6, 37, 62, London, SARS-yellow, SARS-green); assay type: binding, human; parameters: Binding of serum 6 to linear peptides of protein X1 of SARS-CoV Urbani / Binding of serum 37 to linear peptides of protein X1 of SARS-CoV Urbani / Binding of serum 6 to looped/cyclic peptide (PEPSCAN-ELISA) / Binding of serum 37 to looped/cyclic peptide (PEPSCAN-ELISA) / Binding of serum 37 to looped/cyclic peptides of protein X1 of SARS-CoV Urbani / Binding of serum 6 to linear peptides of protein X2 / Binding of serum 37 to linear peptides of protein X2 / Binding of serum 37 to looped/cyclic peptides of protein X2 of SARS-CoV Urbani / Binding of serum 6 to linear peptides of protein M of SARS-CoV Urbani / Binding of serum 37 to linear peptides of protein M of SARS-CoV Urbani / Binding of serum 6 to looped/cyclic peptides of protein M of SARS-CoV Urbani / Binding of serum 37 to looped/cyclic peptides of protein M of SARS-CoV Urbani / Binding of serum 6 to linear peptides of protein X3 of SARS-CoV Urbani / Binding of serum 37 to linear peptides of protein X3 of SARS-CoV Urbani / Binding of serum 37 to looped/cyclic peptides of protein X3 of SARS-CoV Urbani / Binding of serum 6 to linear peptides of protein X4 of SARS-CoV Urbani / Binding of serum 37 to linear peptides of protein X4 of SARS-CoV Urbani / Binding of serum 37 to looped/cyclic peptides of protein X4 of SARS-CoV Urbani / Binding of serum 6 to linear peptides of protein X5 of SARS-CoV Urbani / Binding of serum 37 to linear peptides of protein X5 of SARS-CoV Urbani / Binding of serum 37 to looped/cyclic peptides of protein X5 of SARS-CoV Urbani / Binding of serum 6 to linear peptides of protein N of SARS-CoV Urbani / Binding of serum 37 to linear peptides of protein N of SARS-CoV Urbani / Binding of serum 6 to linear peptide (PEPSCAN-ELISA) / Binding of serum 1a to looped/cyclic peptides of protein N of SARS-CoV Urbani / Binding of serum 1b to looped/cyclic peptides of protein N of SARS-CoV Urbani / Binding of serum 2 to looped/cyclic peptides of protein N of SARS-CoV Urbani / Binding of serum 6 to looped/cyclic peptides of protein N of SARS-CoV Urbani / Binding of serum 37 to looped/cyclic peptides of protein N of SARS-CoV Urbani / Binding of serum 62 to looped/cyclic peptides of protein N of SARS-CoV Urbani / Binding of serum London to looped/cyclic peptides of protein N of SARS-CoV Urbani / Binding of serum SARS-green to looped/cyclic peptides of protein N of SARS-CoV Urbani: unit not given here
[2] = test system: control sera (pooled serum of ten healthy LUMC hospital workers; commercial negative donor pooled serum from the Dutch bloodbank); assay type: binding, human; parameters: Binding of Control serum LUMC to linear peptides / Binding of Control serum Blood-bank to linear peptides / Binding of Control serum LUMC to looped peptides / Binding of Control Serum Blood-Bank to Looped peptides / Binding of Control serum LUMC to linear peptides of the protein M of SARS-CoV Urbani / Binding of Control serum Blood-bank to linear peptides of the protein M of SARS-CoV Urbani / Binding of Control serum LUMC to looped peptides of the protein M of SARS-CoV Urbani / Binding of Control Serum Blood-Bank to Looped peptides of the protein M of SARS-CoV Urbani: unit not given here
[3] = test system: rabbit serum obtained by immunizing a rabbit with the SARS-CoV strain Frankfurt 1; assay type: binding; parameters: Binding of a rabbit serum to linear peptides / Binding of a rabbit serum to looped peptides / Rabbit serum linear peptides / Rabbit serum looped peptides / Binding of a rabbit serum to linear peptides of protein N of SARS-CoV Urbani (Rabbit serum linear peptides) / Binding of a rabbit serum to looped/cyclic peptides of protein N of SARS-CoV Urbani (Rabbit serum looped peptides): unit not given here

VTAFQHQNSKKTTKL
0.7: Binding of serum SARS-yellow to linear peptides of protein X2 [1]
0.1: Binding of serum 2 to looped/cyclic peptides of protein X2 of SARS-CoV Urbani [1] | Binding of serum London to linear peptides of protein X2 [1] | Binding of serum SARS-green to linear peptides of protein X2 [1]
0.5: Binding of serum 37 to linear peptides of protein X2 [1] | Binding of serum 62 to looped/cyclic peptides of protein X2 of SARS-CoV Urbani [1] | Binding of serum SARS-yellow to looped/cyclic peptides of protein X2 of SARS-CoV Urbani [1] | Binding of Control Serum Blood-Bank to Looped peptides [2] | Binding of Control serum LUMC to linear peptides [2] | Binding of Control serum LUMC to looped peptides [2]
0.6: Binding of a rabbit serum to linear peptides [3]
0.4: Binding of serum 1a to linear peptides of protein X2 [1] | Binding of serum 1a to looped/cyclic peptides of protein X2 of SARS-CoV Urbani [1] | Binding of serum 1b to linear peptides of protein X2 [1] | Binding of a rabbit serum to looped peptides [3]
0.3: Binding of serum 1b to looped/cyclic peptides of protein X2 of SARS-CoV Urbani [1] | Binding of serum 6 to linear peptides of protein X2 [1] | Binding of serum 6 to looped/cyclic peptides of protein X2 of SARS-CoV Urbani [1] | Binding of serum 37 to looped/cyclic peptides of protein X2 of SARS-CoV Urbani [1] | Binding of serum 62 to linear peptides of protein X2 [1] | Binding of Control serum Blood-bank to linear peptides [2]
0.2: Binding of serum 2 to linear peptides of protein X2 [1] | Binding of serum London to looped/cyclic peptides of protein X2 of SARS-CoV Urbani [1] | Binding of serum SARS-green to looped/cyclic peptides of protein X2 of SARS-CoV Urbani [1]

PLLYDANYFVCWHTH
0.4: Binding of serum 2 to looped/cyclic peptide (PEPSCAN-ELISA) [1] | Binding of serum 6 to looped/cyclic peptide (PEPSCAN-ELISA) [1] | Binding of serum London to linear peptides of protein X1 of SARS-CoV Urbani [1] | Binding of serum SARS-green to linear peptides of protein X1 of SARS-CoV Urbani [1] | Binding of serum SARS-yellow to looped/cyclic peptide (PEPSCAN-ELISA) [1]
0.3: Binding of serum SARS-green to looped/cyclic peptide (PEPSCAN-ELISA) [1]
0.9: Binding of serum 1a to linear peptides of protein X1 of SARS-CoV Urbani [1]
0.8: Binding of serum 1b to linear peptides of protein X1 of SARS-CoV Urbani [1] | Binding of serum 37 to linear peptides of protein X1 of SARS-CoV Urbani [1] | Binding of serum 62 to linear peptides of protein X1 of SARS-CoV Urbani [1]
0.5: Binding of serum SARS-yellow to linear peptides of protein X1 of SARS-CoV Urbani [1] | Binding of a rabbit serum to looped peptides [3]
0.6: Binding of serum 1a to looped/cyclic peptide (PEPSCAN-ELISA) [1] | Binding of serum 1b to looped/cyclic peptide (PEPSCAN-ELISA) [1] | Binding of serum 2 to linear peptides of protein X1 of SARS-CoV Urbani [1] | Binding of serum 6 to linear peptides of protein X1 of SARS-CoV Urbani [1] | Binding of Control Serum Blood-Bank to Looped peptides [2] | Binding of Control serum LUMC to linear peptides [2] | Binding of Control serum LUMC to looped peptides [2]
0.7: Binding of serum 37 to looped/cyclic peptide (PEPSCAN-ELISA) [1] | Binding of serum 62 to looped/cyclic peptide (PEPSCAN-ELISA) [1] | Binding of Control serum Blood-bank to linear peptides [2]
0.2: Binding of serum London to looped/cyclic peptide (PEPSCAN-ELISA) [1]
0.1: Binding of a rabbit serum to linear peptides [3]

FVLAAVYRINWVTGG
0.7: Binding of serum 1a to looped/cyclic peptides of protein M of SARS-CoV Urbani [1] | Binding of serum 1b to linear peptides of protein M of SARS-CoV Urbani [1]
0.4: Binding of serum SARS-yellow to looped/cyclic peptides of protein M of SARS-CoV Urbani [1]
0.0: Rabbit serum looped peptides [3]
0.1: Binding of serum SARS-yellow to linear peptides of protein M of SARS-CoV Urbani [1]
0.5: Binding of serum 2 to looped/cyclic peptides of protein M of SARS-CoV Urbani [1] | Binding of serum 37 to looped/cyclic peptides of protein M of SARS-CoV Urbani [1] | Binding of Control serum LUMC to linear peptides of the protein M of SARS-CoV Urbani [2] | Rabbit serum linear peptides [3]
0.3: Binding of serum 6 to linear peptides of protein M of SARS-CoV Urbani [1] | Binding of serum London to linear peptides of protein M of SARS-CoV Urbani [1] | Binding of serum London to looped/cyclic peptides of protein M of SARS-CoV Urbani [1] | Binding of serum SARS-green to linear peptides of protein M of SARS-CoV Urbani [1] | Binding of serum SARS-green to looped/cyclic peptides of protein M of SARS-CoV Urbani [1]
0.8: Binding of serum 6 to looped/cyclic peptides of protein M of SARS-CoV Urbani [1] | Binding of serum 37 to linear peptides of protein M of SARS-CoV Urbani [1] | Binding of serum 62 to linear peptides of protein M of SARS-CoV Urbani [1] | Binding of Control serum Blood-bank to linear peptides of the protein M of SARS-CoV Urbani [2] | Binding of Control serum LUMC to looped peptides of the protein M of SARS-CoV Urbani [2]
0.6: Binding of serum 1b to looped/cyclic peptides of protein M of SARS-CoV Urbani [1] | Binding of serum 2 to linear peptides of protein M of SARS-CoV Urbani [1] | Binding of serum 62 to looped/cyclic peptides of protein M of SARS-CoV Urbani [1] | Binding of Control Serum Blood-Bank to Looped peptides of the protein M of SARS-CoV Urbani [2]
0.9: Binding of serum 1a to linear peptides of protein M of SARS-CoV Urbani [1]

WNLDVIISSIVRQLF
0.5: Binding of serum 1a to looped/cyclic peptides of protein X3 of SARS-CoV Urbani [1] | Binding of serum London to linear peptides of protein X3 of SARS-CoV Urbani [1] | Binding of serum SARS-yellow to looped/cyclic peptides of protein X3 of SARS-CoV Urbani [1]
0.6: Binding of serum 37 to linear peptides of protein X3 of SARS-CoV Urbani [1] | Binding of serum 62 to linear peptides of protein X3 of SARS-CoV Urbani [1] | Binding of Control serum Blood-bank to linear peptides of the protein X3 of SARS-CoV Urbani [2]
0.1: Rabbit serum linear peptides [3]
0.4: Binding of serum 2 to linear peptides of protein X3 of SARS-CoV Urbani [1] | Binding of serum 2 to looped/cyclic peptides of protein X3 of SARS-CoV Urbani [1] | Binding of serum 6 to linear peptides of protein X3 of SARS-CoV Urbani [1] | Binding of serum 6 to looped/cyclic peptides of protein X3 of SARS-CoV Urbani [1] | Binding of serum 37 to looped/cyclic peptides of protein X3 of SARS-CoV Urbani [1] | Binding of serum 62 to looped/cyclic peptides of protein X3 of SARS-CoV Urbani [1]
0.2: Binding of serum 1b to linear peptides of protein X3 of SARS-CoV Urbani [1] | Binding of serum London to looped/cyclic peptides of protein X3 of SARS-CoV Urbani [1] | Binding of serum SARS-green to linear peptides of protein X3 of SARS-CoV Urbani [1] | Binding of serum SARS-green to looped/cyclic peptides of protein X3 of SARS-CoV Urbani [1] | Binding of serum SARS-yellow to linear peptides of protein X3 of SARS-CoV Urbani [1] | Rabbit serum looped peptides [3]
0.8: Binding of Control Serum Blood-Bank to Looped peptides of the protein X3 of SARS-CoV Urbani [2]
0.7: Binding of serum 1a to linear peptides of protein X3 of SARS-CoV Urbani [1] | Binding of Control serum LUMC to looped peptides of the protein X3 of SARS-CoV Urbani [2]
0.3: Binding of serum 1b to looped/cyclic peptides of protein X3 of SARS-CoV Urbani [1] | Binding of Control serum LUMC to linear peptides of the protein X3 of SARS-CoV Urbani [2]

QQWIQFMMSRRRLLA
0.8: Binding of serum 6 to linear peptides of protein X2 [1] | Binding of serum 62 to looped/cyclic peptides of protein X2 of SARS-CoV Urbani [1] | Binding of Control serum Blood-bank to linear peptides [2] | Binding of a rabbit serum to linear peptides [3]
0.3: Binding of serum London to looped/cyclic peptides of protein X2 of SARS-CoV Urbani [1]
0.6: Binding of serum 1a to linear peptides of protein X2 [1] | Binding of serum 1a to looped/cyclic peptides of protein X2 of SARS-CoV Urbani [1] | Binding of serum 2 to looped/cyclic peptides of protein X2 of SARS-CoV Urbani [1] | Binding of serum 37 to linear peptides of protein X2 [1] | Binding of serum 37 to looped/cyclic peptides of protein X2 of SARS-CoV Urbani [1] | Binding of serum 62 to linear peptides of protein X2 [1] | Binding of serum SARS-green to linear peptides of protein X2 [1] | Binding of serum SARS-yellow to linear peptides of protein X2 [1] | Binding of Control serum LUMC to linear peptides [2]
0.4: Binding of serum 1b to linear peptides of protein X2 [1] | Binding of serum 2 to linear peptides of protein X2 [1] | Binding of serum 6 to looped/cyclic peptides of protein X2 of SARS-CoV Urbani [1] | Binding of serum SARS-yellow to looped/cyclic peptides of protein X2 of SARS-CoV Urbani [1]
0.5: Binding of serum 1b to looped/cyclic peptides of protein X2 of SARS-CoV Urbani [1] | Binding of serum London to linear peptides of protein X2 [1] | Binding of serum SARS-green to looped/cyclic peptides of protein X2 of SARS-CoV Urbani [1] | Binding of Control serum LUMC to looped peptides [2]
1.5: Binding of a rabbit serum to looped peptides [3]
0.7: Binding of Control Serum Blood-Bank to Looped peptides [2]
